Tests used:
PTP1B = biological target: T1, PTP1B (Homo sapiens, UniProt P18031); assay: PTP1B inhibition, IC50 (Table A); assay type: biochemical
T1 sequence (P18031 1-435): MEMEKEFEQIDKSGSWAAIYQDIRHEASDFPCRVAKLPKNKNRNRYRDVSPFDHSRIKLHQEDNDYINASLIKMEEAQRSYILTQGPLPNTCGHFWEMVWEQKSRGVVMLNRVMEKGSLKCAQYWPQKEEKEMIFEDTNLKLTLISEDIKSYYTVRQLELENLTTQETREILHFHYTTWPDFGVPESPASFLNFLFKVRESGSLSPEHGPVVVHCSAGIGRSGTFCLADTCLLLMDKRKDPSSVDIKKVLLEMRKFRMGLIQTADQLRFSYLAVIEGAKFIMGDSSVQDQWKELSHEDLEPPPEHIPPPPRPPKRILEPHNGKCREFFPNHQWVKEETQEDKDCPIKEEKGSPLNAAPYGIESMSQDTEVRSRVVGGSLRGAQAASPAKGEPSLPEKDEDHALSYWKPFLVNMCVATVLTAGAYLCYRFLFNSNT

HPTPβ = HPTPβ (Homo sapiens, UniProt P23467); assay: HPTPβ inhibition, IC50 (Table A); assay type: biochemical
Sequence of HPTPβ (P23467 23-1997): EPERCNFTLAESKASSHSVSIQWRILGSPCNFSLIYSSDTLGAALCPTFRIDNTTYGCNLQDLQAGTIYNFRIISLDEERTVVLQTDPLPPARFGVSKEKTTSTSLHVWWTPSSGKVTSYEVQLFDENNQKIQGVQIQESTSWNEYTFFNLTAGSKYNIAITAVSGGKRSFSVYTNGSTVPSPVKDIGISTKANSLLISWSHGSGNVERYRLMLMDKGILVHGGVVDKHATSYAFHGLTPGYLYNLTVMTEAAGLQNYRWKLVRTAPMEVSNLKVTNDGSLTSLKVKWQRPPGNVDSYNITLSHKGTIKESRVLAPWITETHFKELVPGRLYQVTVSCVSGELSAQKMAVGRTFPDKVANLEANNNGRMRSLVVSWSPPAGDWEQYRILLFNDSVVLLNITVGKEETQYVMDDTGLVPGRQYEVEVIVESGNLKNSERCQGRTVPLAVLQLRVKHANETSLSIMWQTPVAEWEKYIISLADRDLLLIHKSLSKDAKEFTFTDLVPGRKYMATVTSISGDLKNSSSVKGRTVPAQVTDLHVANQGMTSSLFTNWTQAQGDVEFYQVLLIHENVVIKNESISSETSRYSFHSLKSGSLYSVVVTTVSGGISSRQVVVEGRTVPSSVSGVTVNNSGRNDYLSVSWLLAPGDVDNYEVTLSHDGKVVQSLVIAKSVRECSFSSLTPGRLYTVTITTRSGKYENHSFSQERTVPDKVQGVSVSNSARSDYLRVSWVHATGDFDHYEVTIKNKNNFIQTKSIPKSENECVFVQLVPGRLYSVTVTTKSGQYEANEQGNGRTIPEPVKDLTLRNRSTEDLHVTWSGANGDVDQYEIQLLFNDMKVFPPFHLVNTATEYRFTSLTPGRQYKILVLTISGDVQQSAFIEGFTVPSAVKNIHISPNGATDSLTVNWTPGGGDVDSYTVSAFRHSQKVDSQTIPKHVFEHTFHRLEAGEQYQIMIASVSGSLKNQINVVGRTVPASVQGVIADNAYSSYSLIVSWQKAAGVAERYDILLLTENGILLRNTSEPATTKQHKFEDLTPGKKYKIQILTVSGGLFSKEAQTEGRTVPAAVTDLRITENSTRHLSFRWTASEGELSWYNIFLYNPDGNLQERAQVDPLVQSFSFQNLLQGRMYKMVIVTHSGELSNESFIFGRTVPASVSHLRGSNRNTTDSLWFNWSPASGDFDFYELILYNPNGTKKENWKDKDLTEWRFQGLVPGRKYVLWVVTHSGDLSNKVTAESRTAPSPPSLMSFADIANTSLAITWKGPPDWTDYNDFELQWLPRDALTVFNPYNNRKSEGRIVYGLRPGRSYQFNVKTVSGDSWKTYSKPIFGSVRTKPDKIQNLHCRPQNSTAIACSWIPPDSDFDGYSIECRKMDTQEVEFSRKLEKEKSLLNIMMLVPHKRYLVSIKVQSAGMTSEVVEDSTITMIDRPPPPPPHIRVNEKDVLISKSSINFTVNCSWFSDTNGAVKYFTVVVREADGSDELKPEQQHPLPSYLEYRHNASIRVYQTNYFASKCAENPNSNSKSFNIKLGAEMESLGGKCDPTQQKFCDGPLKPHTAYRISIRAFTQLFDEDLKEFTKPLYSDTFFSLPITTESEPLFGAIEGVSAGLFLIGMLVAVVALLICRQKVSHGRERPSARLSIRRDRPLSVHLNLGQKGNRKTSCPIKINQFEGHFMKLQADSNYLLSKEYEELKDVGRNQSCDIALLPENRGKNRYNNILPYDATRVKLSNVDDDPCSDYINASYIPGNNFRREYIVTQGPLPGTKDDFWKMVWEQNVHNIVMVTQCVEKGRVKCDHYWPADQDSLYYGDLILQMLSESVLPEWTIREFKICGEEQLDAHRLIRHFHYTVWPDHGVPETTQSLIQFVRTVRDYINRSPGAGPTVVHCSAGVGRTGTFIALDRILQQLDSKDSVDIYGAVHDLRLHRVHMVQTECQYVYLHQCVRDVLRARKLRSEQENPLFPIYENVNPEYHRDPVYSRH

| Molecule | IC50 (PTP1B) [nM] | IC50 (HPTPβ) [nM] |
| --- | --- | --- |
| CCc1csc([C@H](Cc2ccc(NS(=O)(=O)O)cc2)NC(=O)Cc2cccc(Cl)c2)n1 [(S)-4-(2-(2-(3-Chlorophenyl)acetamido)-2-(4-ethylthiazol-2-yl)ethyl)phenyl-sulfamic acid] | 13600 | 33 |
| CCc1csc([C@H](Cc2ccc(NS(=O)(=O)O)cc2)NC(=O)CCc2ccccc2OC)n1 [(S)-4-(2-(4-Ethylthiazol-2-yl)-2-(3-(2-methoxyphenyl)propanamido)ethyl)phenyl-sulfamic acid] | 16900 | 3 |
| CCc1csc([C@H](Cc2ccc(NS(=O)(=O)O)cc2)NC(=O)CN2CCN(CC)C(=O)C2=O)n1 [(S)-4-{2-[2-(4-Ethyl-2,3-dioxopiperazin-1-yl)acetamido]-2-(4-ethylthiazol-2-yl)ethyl}phenylsulfamic acid] | 530 | 2 |
| CCc1csc([C@H](Cc2ccc(NS(=O)(=O)O)cc2)NC(=O)Cc2cccc(F)c2F)n1 [(S)-4-(2-(2-(2,3-Difluorophenyl)acetamido)-2-(4-ethylthiazol-2-yl)ethyl)phenyl-sulfamic acid] | 5360 | 28 |
| CCc1csc([C@H](Cc2ccc(NS(=O)(=O)O)cc2)NC(=O)CCc2ccccc2)n1 [(S)-4-(2-(4-Ethylthiazol-2-yl)-2-(3-phenylpropanamido)ethyl)phenylsulfamic acid] | 10400 | 2 |
| CCc1csc([C@H](Cc2ccc(NS(=O)(=O)O)cc2)NC(=O)CCc2ccc(OC)cc2)n1 [(S)-4-(2-(4-Ethylthiazol-2-yl)-2-(3-(4-methoxyphenyl)propanamido)ethyl)phenyl-sulfamic acid] | 16000 | 6 |
| CCc1csc([C@H](Cc2ccc(NS(=O)(=O)O)cc2)NC(=O)Cc2ccccc2)n1 [(S)-{4-[2-(4-Ethylthiazol-2-yl)-2-(phenylacetylamido)ethyl]-phenyl}sulfamic acid] | 22900 | 50 |
| CCc1csc([C@H](Cc2ccc(NS(=O)(=O)O)cc2)NC(=O)Cc2cccc(OC)c2OC)n1 [(S)-4-(2-(2-(2,3-Dimethoxyphenyl)acetamido)-2-(4-ethylthiazol-2-yl)ethyl)-phenylsulfamic acid] | 25400 | 37 |
| CCc1csc([C@H](Cc2ccc(NS(=O)(=O)O)cc2)NC(=O)CCc2cccc(OC)c2)n1 [(S)-4-(2-(4-Ethylthiazol-2-yl)-2-(3-(3-methoxyphenyl)propanamido)ethyl)phenyl-sulfamic acid] | 20600 | 10 |
| CCc1csc([C@H](Cc2ccc(NS(=O)(=O)O)cc2)NC(=O)Cc2ccc(OC)c(OC)c2)n1 [(S)-4-(2-(2-(3,4-Dimethoxyphenyl)acetamido)-2-(4-ethylthiazol-2-yl)ethyl)-phenylsulfamic acid] | 15500 | 28 |
| CCc1csc([C@H](Cc2ccc(NS(=O)(=O)O)cc2)NC(=O)Cc2ccccc2F)n1 [(S)-4-(2-(4-Ethylthiazol-2-yl)-2-(2-(2-fluorophenyl)acetamido)ethyl)phenyl-sulfamic acid] | 5360 | 12 |
| CCc1csc([C@H](Cc2ccc(NS(=O)(=O)O)cc2)NC(=O)CCc2cccc(Cl)c2)n1 [(S)-4-(2-(3-(3-Chlorophenyl)propanamido)-2-(4-ethylthiazol-2-yl)ethyl)phenyl-sulfamic acid] | 15300 | 0.2 |
| CCc1csc([C@H](Cc2ccc(NS(=O)(=O)O)cc2)NC(=O)Cc2ccccc2Cl)n1 [(S)-4-(2-(2-(2-Chlorophenyl)acetamido)-2-(4-ethylthiazol-2-yl)ethyl)phenyl-sulfamic acid] | 22800 | 56 |
| CCc1csc([C@H](Cc2ccc(NS(=O)(=O)O)cc2)NC(=O)Cn2cc(C)c(=O)[nH]c2=O)n1 [(S)-4-{2-(4-Ethylthiazol-2-yl)-2-[2-(5-methyl-2,4-dioxo-3,4-dihydropyrimidin-1(2H)-yl)acetamido]ethyl}phenylsulfamic acid] | 254 | 2 |
| CCc1csc([C@H](Cc2ccc(NS(=O)(=O)O)cc2)NC(=O)Cc2cccc(O)c2)n1 [(S)-4-(2-(4-Ethylthiazol-2-yl)-2-(2-(3-hydroxyphenyl)acetamido)ethyl)phenyl-sulfamic acid] | 6570 | 40 |
| CCc1csc([C@H](Cc2ccc(NS(=O)(=O)O)cc2)NC(=O)Cc2ccc(F)c(F)c2)n1 [(S)-4-(2-(2-(3,4-Difluorophenyl)acetamido)-2-(4-ethylthiazol-2-yl)ethyl)phenyl-sulfamic acid] | 23900 | 75 |
| CCc1csc([C@H](Cc2ccc(NS(=O)(=O)O)cc2)NC(=O)Cc2cccc(OC)c2)n1 [(S)-4-(2-(4-Ethylthiazol-2-yl)-2-(2-(3-methoxyphenyl)acetamido)ethyl)phenyl-sulfamic acid] | 4050 | 8 |
| CCc1csc([C@H](Cc2ccc(NS(=O)(=O)O)cc2)NC(=O)Cc2cccc(F)c2)n1 [(S)-4-(2-(4-Ethylthiazol-2-yl)-2-(2-(3-fluorophenyl)acetamido)ethyl)phenyl-sulfamic acid] | 2850 | 0.3 |
| (S)-4-(2-(4-Ethylthiazol-2-yl)-2-(2-(2-methoxyphenyl)acetamido)ethyl)phenyl-sulfamic acid | 11700 | 14 |
| CCc1csc([C@H](Cc2ccc(NS(=O)(=O)O)cc2)NC(=O)c2ccc3c(c2)OCO3)n1 [(S)-4-[2-(Benzo[d][1,3]dioxole-5-carboxamido)-2-(4-ethylthiazol-2-yl)ethyl]phenylsulfamic acid] | 19000 | 42 |
